{"source": "patent US4207308A", "about": "“Process for purifying iodinated bile acid conjugates” (priority 1977, dated 1980)", "key": {"Ab 927 [1]": {"test_system": "Ab 927", "experiment": "Radioimmunoassay cross-reactivity / displacement of cholylglycyl-125I-histamine tracer (Specificity of Tracer and Antibody)"}, "Ab 927 [2]": {"test_system": "Ab 927"}, "[3]": {"test_system": "antibodies from rabbits (anti BSA-cholylglycine conjugate), Ab 927", "experiment": "Antibody titer curves using cholylglycyl-125I-histamine (or 3H-cholylglycine) tracer", "format": "binding, rabbit", "protocol": "Young adult male New Zealand white rabbits were immunized at multiple sites on the back at bi-weekly intervals using 1.0 ml of BSA-cholylglycine conjugate (50 μg) emulsified with an equal volume of Freund's adjuvant. Serum was harvested every 2 weeks beginning one month after the initial immunization. […] 1 mg bovine gamma globulin was included in each tube. […] The supernate (bound) was decanted into another tube and both the charcoal (free) and supernate (bound) tubes were counted in a γ-spectrometer (Elscint). Results were expressed as the bound/free (B/F) ratio. A standard curve was constructed and unknowns were quantitated from a standard curve run with each assay. Antibodies from six different rabbits were produced and tested."}}, "data": [{"molecule": "C[C@H](CCC(=O)NCC(=O)NCCc1c[nH]cn1)[C@H]1CC[C@H]2[C@@H]3[C@H](O)C[C@@H]4C[C@H](O)CC[C@]4(C)[C@H]3C[C@H](O)[C@]12C", "note": "[cholylglycylhistamine]", "values": [{"measurement": "Amount required for displacement relative to other bile salts (fold less)", "setting": "Ab 927 [1]; FIG. 4, less than other bile salts", "result": "approximately 10 fold"}, {"measurement": "affinity (in words)", "setting": "Ab 927 [1]; explanation for sensitivity not rising with titer", "result": "greater affinity"}]}, {"molecule": "C[C@H](CCC(=O)O)[C@H]1CC[C@H]2[C@@H]3CC[C@@H]4C[C@H](O)CC[C@]4(C)[C@H]3CC[C@]12C", "note": "[Lithocholic acid]", "values": [{"measurement": "activity", "setting": "Ab 927 [2]", "result": 2, "unit": "%"}]}, {"molecule": "Cholylglycyl-^125 I-histamine [cholylglycyl-125I-histamine]", "values": [{"measurement": "initial B/F (bound/free ratio)", "setting": "[3]; 1:100 dilution, approximately 3000 CPM cholylglycyl-125I-histamine, four antibodies", "result": "10.5 to 14.2"}, {"measurement": "Non-specific binding", "setting": "[3]; CPM in supernate without antibody, unchanged as long as 6 months after iodination", "result": "2-4%"}, {"measurement": "binding of tracer", "setting": "[3]; corresponds to B/F 14.2, 1:100 dilution", "result": 93, "unit": "%"}, {"measurement": "specificity (in words)", "setting": "Ab 927 [1]", "result": "maintain a specificity toward the conjugated bile salts, particularly cholate and chenodeoxycholate conjugates"}]}]}
